Data on one compound can be found in patent US20090030037A1, “Sustained Release Formulation and Dosing Schedules of Leukotriene Synthesis Inhibitor for Human Therapy” (deCODE Genetics ehf., priority 2005, published 2009).

Data set [1] can be described thus: Study DG-031-204: adverse events. The data set is classed as in vivo. Conditions: for SAE Description: single patients. As for the experimental part:
(§1) An additional single site, open label study was carried out to obtain biomarker and safety data on additional DG-031 doses (i.e., 1000 mg and 1500 mg). This study examined the safety, tolerability and dose-related effects of DG-031 on inflammatory biomarkers including: LTB4, hsCRP, and MPO. A total of 119 patients with a prior history of CAD and MI were randomized to receive either 1000 mg DG-031 (500 mg BID) or 1500 mg DG-031 (500 mg TID) daily for 4-6 weeks. Treatment with DG-031 in addition to the subject's standard care, medication, and treatment, was prescribed by the patient's cardiologist. A majority of the subjects received statin therapy before, during and after the study. Follow-up assessments were performed 2 weeks after the end of study drug administration.
A total of 5 patients reported 8 serious adverse events (SAE). One death was reported during the trial. All SAE's were consistent with underlying CAD disorders (see Table 16). A total of 88 of 119 patients reported 203 adverse events. The most commonly reported adverse events (and number of cases reported) included: cold (27), headache (13), constipation/diarrhea (6/8), and vertigo (5).

For the next data set, the system named is White blood cell count. The experiment in a line: Study DG-031-201: white blood cell count. The data set is classed as in vivo, human. The conditions noted are these: difference visit 2 to 5; 500 and 750 mg/day vs placebo. The protocol:
Patients who met the study eligibility criteria were enrolled and randomized into 3 different dose-level groups: (1) 64 patients on 250 mg/day therapy with DG-031 (250 mg q.d.), vs placebo; (2) 64 patients on 500 mg/day therapy with DG-031 (250 mg b.i.d.) vs placebo; and (3) 63 patients on 750 mg/day therapy with DG-031 (250 mg t.i.d.) vs placebo. […] All patients received 3 tablets per day. Treatment periods, 4 weeks in duration each, were separated by a 2-week washout period. The placebo tablets were identical in shape, color, form and taste to the active tablets except that they contained no active drug ingredients. Treatment with DG-031 or placebo was in addition to the subject's standard care, including all medications and treatment plan as prescribed by the subject's cardiologist prior to enrolment. A total of 191 subjects were enrolled, with 172 completing all 8 visits or 8 patients short of the target of 180 patients.
All data were analyzed according to a pre-established statistical analysis plan (SAP) and by intention-to-treat (ITT). Each arm of the study, as well as pooled sets (combining dose levels), was considered for the primary analysis. […] The difference between DG-031 and placebo treatment was the primary outcome, assessed separately for each of the biomarkers. […]

The next data set concerns LTB4. Put plainly: Study DG-031-204: serum LTB4. In kind it is in vivo, human. The conditions noted are these: after 4 weeks. As for the experimental part: as §1
The biomarkers were analyzed as described in Example 1. Statistical analysis of the data was carried out using a one-sample t-test on change from baseline with a two-sided nominal significance level of 0.050. […]
Serum was collected weekly for determination of LTB4 concentration in response to the treatment with DG-031. […] Stimulated LTB4 effects measured in study DG-031-204, as shown in the raw data set out in Table 12, appear consistent with projections from the exposure-response analysis based on data from studies DG-031-201 and DG-031-203. […]

Where [2] appears, read: 119 patients, 500 mg BID or TID, 4-6 weeks.

Entries after “also recorded” stand apart in the source; their conditions may differ.

Turning to `O=C(O)[C@@H](c1ccc(OCc2ccc3ccccc3n2)cc1)C1CCCC1` [DG-031, (R)-(+)-alpha-cyclopentyl-4-(2-quinolinylmethoxy)-Benzeneacetic acid], the “SAE Description” value in data set [1] (1000 mg treatment) was “Cardiac arrest,; also recorded: Subarachnoid hemorrhage; also recorded: Angiography,; also recorded: Repair of Carotid artery; also recorded: Myocardial infarction; also recorded: Unstable angina; also recorded: Myocardial infarction,”. Also, in data set [1] (1500 mg treatment), the “SAE Description” value was “Congestive heart failure”. Besides, in data set [1] (119 patients), the Adverse events reported was determined as 203, the Cases of cold worked out at 27, the Cases of constipation was 6 and the Cases of diarrhea amounted to 8. In data set [1] (119 patients), the Cases of headache came out at 13 and the Cases of vertigo worked out at 5. Moreover, the “Deaths reported during the trial” value in data set [1] (119 patients, 500 mg BID or TID) is reported as “One”. In data set [1] (setting [2]), the “Patients reporting serious adverse events” value amounted to 5 and the “Serious adverse events (SAE) reported” value came out at 8. In data set [1] (of 119 patients), the “Patients reporting adverse events” value turned out to be 88. The “Carry-over effect, White blood cell count” value with White blood cell count is given as −0.01. Besides, in the data set on LTB4 (1000 mg (500 mg BID)), the “Serum LTB4 (% change from baseline)” value is on record as −73%. The “Serum LTB4 (% change from baseline)” value with LTB4 (1500 mg (500 mg TID)) is −50%.
